Measured values published in patent publication US20240358727A1, “MICROSCALE THERMOPHORESIS TO EVALUATE CHANNEL LIPID INTERACTIONS AND METHODS OF TREATING NAV CHANNELS RELATED DISEASES” (Northeastern University, priority 2023, published 2024).
Entries after “also recorded” stand apart in the source; their conditions may differ.

Target: T1, Nav1.5 (Homo sapiens, UniProt Q14524)
T1 construct: expressed in transfected cells
Experiment: Whole-cell patch clamp of Nav1.5 stable cells with optogenetic PI-phosphatases and diC8PI(4,5)P2 in the pipette
Assay type: cell-based
Settings: for left shift in the I-V relationship / shift in V½SSI / shift in V½act / V½SSI / V½act: 200 μM diC8PI(4,5)P2; for current density: 200 μM diC8PI(4,5)P2, −55 mV; for τinact / ILATE: diC8PI(4,5)P2; for ILATE: % of Ipeak
Procedure: Nav1.5 channels were studied with Navβ1 (SCNIB, isoform b; NM_001037) in pRAT, a CMV driven vector. N-terminal CRY2-tagged pseudojanin in pMaX(+) vector was generated by Genscript (Piscataway, NY). Purified diC8PI(4,5)P2 was purchased from Echelon Biosciences.
HEK293-T cells were purchased from American Type Culture Collection (ATCC, catalog no. CRL-3216). The cells were cultured in 60-mm dishes in Dulbecco's Modified Eagle Medium (DMEM) (Sigma-Aldrich) that was supplemented with a combination of 100 units/ml of penicillin, 100 μg/ml of streptomycin and 10% Fetal Bovine Serum (FBS). Stable cells were cultured in previously mentioned DMEM, penicillin, streptomycin, and FBS medium with addition of 2 μg/ml puromycin, 5 μg/ml blasticidin, 200 μg/ml geneticin (G418). Both cell lines were incubated at 5% CO2 at 37° C. 24 hours before transfection cells from either cell lines were seeded on glass coverslips in 35-mm dishes. Both cell lines were transfected in OptiMEM using polyethyleneimine (PEI) at a 1 μg of DNA: 4 μL PEI to 1 μg of DNA: 6 μL PEI ratio for 2-4 hours. HEK293-T cells were transfected with 1.5 μg of channel DNA and 1 μg of the beta subunit alone and alongside light-activated constructs. Stable cells were transfected with 1p g of the beta subunit alone and alongside light-activated constructs. Electrophysiology recordings were performed within 24-48 hours after transfection at room temperature.
Both the HEK293-T, and Nav1.5 stable cells were studied under whole-cell patch clamp. Sodium currents were recorded using the Tecella Pico-2 amplifier (Tecella) and WinWCP software (University of Strathclyde) at a low pass (Bessel) filter of 9 kHz and sampled at 50 kHz frequencies. The borosilicate glass (Clark Kent) patch pipettes were pulled to a resistance of 2-4 MQ using the vertical puller (Narishige) when filled with internal solution. The internal solution contained (in mM): 60 CsCl, 80 CsF, 2 MgCl2·6H2O, 10 EGTA, 5 HEPES, 5 Na2ATP, pH 7.4 with CsOH. Cells were perfused through a multichannel gravity-driven perfusion manifold (Warner) with an extracellular solution containing (in mM): 130 NaCl, 5 CsCl, 1.2 MgCl2·6H2O, 1.5 CaCl2), 8 Glucose, 10 HEPES. Cells with a series resistance less than 15 MQ were studied.
Current-voltage relationships were evoked by a 250-ms test pulse between −80 mV to 35 mV, in 5 mV increments. Steady-state inactivation was studied by holding cells at −120 mV and then comparing currents that were evoked by a 50 ms test pulse between −120 mV and −20 mV to those evoked by a 500 ms pre-pulse to 30 mV, in 10 mV increments. Normalized peak currents were then plotted against pre-pulse potential (mV). To determine voltage-dependence, the data was normalized and plotted against the driving force and fitted to a Boltzmann function, I=Imax(1+exp[V−V1/2/k]), where Imax is maximum current and k is the slope factor to generate normalized conductance-voltage (G-V) relationship. The ILATE was evoked by a single test pulse between −90 mV and −20 mV. ILATE was calculated from the last 10 ms of this 250 ms test pulse. From this recording protocol, the time constant for inactivation (T) was determined from a mono-exponential fit of normalized current amplitude using It=Imax+A [e^−t/τ], A is amplitude and t is time. All whole-cell currents were normalized to the capacitance of cell.
Experiments were set up similar to those in Gada et al (2023). Optogenetic studies were conducted simultaneously alongside patch-clamp. Here the photoactivation of cells was conducted in the epifluorescence-mode to utilize continuous excitation from a broad-spectrum LED (Excelitas) through a 448/20 nm filter (Chroma), via a 20× objective lens (Olympus). A photometer (ThorLabs) was used to measure the light output which measured at 50 mW/cm^2. […]

[1] = 200 μM diC8PI(4,5)P2 in pipette
[2] = CRY2-5POCRL + CRY2-Sac2, BL vs control
[3] = CRY2-5POCRL + CRY2-Sac2, control (before BL)
[4] = CRY2-5POCRL, control (before BL)
[5] = CRY2-5POCRL, diC8PI(4,5)P2 enriched vs BL without diC8PI(4,5)P2

T1 sequence (Q14524 whole entry): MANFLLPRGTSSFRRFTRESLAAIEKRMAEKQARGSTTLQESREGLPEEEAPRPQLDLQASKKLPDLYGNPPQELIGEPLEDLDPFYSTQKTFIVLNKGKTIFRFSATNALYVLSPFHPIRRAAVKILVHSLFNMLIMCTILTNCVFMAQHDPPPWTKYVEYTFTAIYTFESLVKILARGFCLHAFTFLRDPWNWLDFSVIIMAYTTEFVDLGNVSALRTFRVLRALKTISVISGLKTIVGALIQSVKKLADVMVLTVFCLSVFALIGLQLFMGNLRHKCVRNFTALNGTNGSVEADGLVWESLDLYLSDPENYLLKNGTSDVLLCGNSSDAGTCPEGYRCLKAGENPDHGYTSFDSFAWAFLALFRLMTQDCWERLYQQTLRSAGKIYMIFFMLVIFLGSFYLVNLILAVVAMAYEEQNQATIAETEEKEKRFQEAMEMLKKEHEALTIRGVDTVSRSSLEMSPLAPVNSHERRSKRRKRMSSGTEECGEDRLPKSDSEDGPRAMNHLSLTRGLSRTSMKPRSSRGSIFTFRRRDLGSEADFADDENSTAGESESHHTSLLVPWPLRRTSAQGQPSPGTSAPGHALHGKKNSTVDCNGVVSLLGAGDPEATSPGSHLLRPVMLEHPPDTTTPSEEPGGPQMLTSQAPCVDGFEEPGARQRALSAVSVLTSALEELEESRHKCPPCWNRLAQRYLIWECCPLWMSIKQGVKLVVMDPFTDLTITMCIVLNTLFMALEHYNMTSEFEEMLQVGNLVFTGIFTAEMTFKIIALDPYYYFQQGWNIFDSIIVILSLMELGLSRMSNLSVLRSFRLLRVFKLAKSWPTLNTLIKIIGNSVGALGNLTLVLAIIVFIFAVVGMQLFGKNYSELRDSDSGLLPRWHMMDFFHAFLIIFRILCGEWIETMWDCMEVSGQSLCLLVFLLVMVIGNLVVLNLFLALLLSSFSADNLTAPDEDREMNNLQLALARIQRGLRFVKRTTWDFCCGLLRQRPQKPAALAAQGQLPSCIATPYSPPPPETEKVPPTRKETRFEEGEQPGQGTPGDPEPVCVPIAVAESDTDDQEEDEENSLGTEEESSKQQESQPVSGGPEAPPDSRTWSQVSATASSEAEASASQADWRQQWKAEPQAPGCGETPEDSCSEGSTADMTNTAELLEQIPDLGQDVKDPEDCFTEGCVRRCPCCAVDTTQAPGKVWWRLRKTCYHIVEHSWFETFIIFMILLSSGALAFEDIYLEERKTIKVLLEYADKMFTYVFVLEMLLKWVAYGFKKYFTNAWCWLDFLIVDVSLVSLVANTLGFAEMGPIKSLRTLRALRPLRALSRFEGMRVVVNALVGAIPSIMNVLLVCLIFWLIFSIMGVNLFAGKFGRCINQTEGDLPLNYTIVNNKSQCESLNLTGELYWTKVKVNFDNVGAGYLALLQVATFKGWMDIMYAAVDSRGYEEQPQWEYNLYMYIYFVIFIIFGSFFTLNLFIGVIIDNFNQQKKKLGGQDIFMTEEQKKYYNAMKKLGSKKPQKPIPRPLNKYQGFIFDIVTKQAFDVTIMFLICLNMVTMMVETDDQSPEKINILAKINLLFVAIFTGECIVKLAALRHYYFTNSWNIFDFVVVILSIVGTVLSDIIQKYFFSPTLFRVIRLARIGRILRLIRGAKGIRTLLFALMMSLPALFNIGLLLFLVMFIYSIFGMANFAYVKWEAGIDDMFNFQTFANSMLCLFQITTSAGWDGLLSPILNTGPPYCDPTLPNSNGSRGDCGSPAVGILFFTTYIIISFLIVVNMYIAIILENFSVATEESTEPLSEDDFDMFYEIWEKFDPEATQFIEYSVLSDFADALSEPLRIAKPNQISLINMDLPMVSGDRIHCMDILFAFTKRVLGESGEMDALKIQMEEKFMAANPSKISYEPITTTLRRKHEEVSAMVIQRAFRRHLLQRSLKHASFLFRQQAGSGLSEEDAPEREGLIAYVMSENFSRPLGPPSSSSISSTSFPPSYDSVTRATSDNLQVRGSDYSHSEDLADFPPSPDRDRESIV

## CCCCCCCC(=O)OC[C@H](COP(=O)(O)O[C@@H]1[C@H](O)[C@H](O)[C@@H](OP(=O)(O)O)[C@H](OP(=O)(O)O)[C@H]1O)OC(=O)CCCCCCC [diC8-PIP2]
[1]
  effect on CRY2-5POCRL (CRY2-5P) dephosphorylation effects: partially opposes; also recorded: partially reverses
  effect on CRY2-5POCRL/Sac2 dephosphorylation effects (activation, SSI): partially opposes
CRY2-5POCRL + CRY2-Sac2, BL vs before BL
  left shift in the I-V relationship: −1.87 mV
[2]
  shift in V½SSI: −9.1±1.62 mV
  shift in V½act: −1.87±1.52 mV
CRY2-5POCRL + CRY2-Sac2, BL
  V½SSI: −80.48±1.75 mV
  V½act: −53.17±1.49 mV
  current density: −203.83±59.93 pA/pF
[3]
  V½SSI: −71.75±1.84 mV
  V½act: −51.30±1.7 mV
CRY2-5POCRL + CRY2-Sac2, diC8PI(4,5)P2
  effect on changes in window current: does not oppose
CRY2-5POCRL + CRY2-Sac2, diC8PI(4,5)P2 enriched before BL vs BL without diC8PI(4,5)P2
  difference in V½act: −6.518 mV
CRY2-5POCRL + CRY2-Sac2, diC8PI(4,5)P2 enriched vs BL without diC8PI(4,5)P2
  difference in V½SSI: −8.73±2.61
CRY2-5POCRL + CRY2-Sac2, without BL
  current density: −80.94±28.21 pA/pF
CRY2-5POCRL, BL vs control
  shift in V½SSI: −0.9383±2.01 mV
  shift in V½act: −8.61±0.77 mV
CRY2-5POCRL, BL
  V½SSI: −72.13±1.53 mV
  V½act: −55.90±2.00 mV
  left shift in the I-V relationship: ~8.61 mV
  τinact: 1.68 ± 0.15 ms
  ILATE: 0.64±0.25%
[4]
  V½SSI: −73.07±1.54 mV
  V½act: −47.29±1.77 mV
  τinact: 1.24 ± 0.3 ms
  ILATE: 0.08±0.025%
CRY2-5POCRL, diC8PI(4,5)P2 enriched before BL vs BL without diC8PI(4,5)P2
  difference in V½act: ~6.768±2.420 mV
[5]
  difference in ILATE: 2.139±0.5794
  difference in V½SSI: −6.518 mV
  difference in τinact: 1.345 ± 0.3918 ms
diC8PI(4,5)P2 enriched vs depleted
  effect on CRY2-PJ dephosphorylation effect on voltage-dependence of inactivation (SSI): opposed; also recorded: partially opposes
diC8PI(4,5)P2 in pipette
  effect on CRY2-PJ dephosphorylation effects on Nav1.5: did not oppose; also recorded: does not oppose
